Reference: patent publication US20110034371A1, “L. CASEI RHAMNOSUS SECRETED FACTORS AND USE THEREOF” (priority 2009, published 2011)

Tests used:
THP-1 cells = assay: Annexin V-FITC and PI staining, flow cytometry: apoptosis of THP-1 cells; type: cell-based, human
Experimental: (§1) Lymphocytes, monocytes and THP-1 cells (10^6 per test) were collected after incubation with LcrS, 3.125-25 μg mL^−1, for various times. After washing twice with PBS, the cells were resuspended in Annexin V binding buffer (10 mM HEPES-NaOH (pH 7.4), 140 mM NaCl, and 2.5 mM CaCl2). After centrifugation, the cells were incubated in 500 μl of the same buffer containing 1.25 it FITC-conjugated Annexin V (BD PharMingen, San Diego, Calif., USA) at room temperature for 15 min in the dark. Data acquisition and analysis were performed by the Becton-Dickinson FACSan flow cytometer (Franklin Lakes, N.J., USA) using CellQuest software (Becton-Dickinson, Oxford, UK). […]
as §1, with “500 W” for “500 μl”, “1.25 μl” for “1.25 it”
as §1, with “1.25 μl” for “1.25 it”
The TGF-β regulates a wide variety of biological functions including apoptosis. The TGF-β production was increasing in the LcrS5-30 treated THP-1 cells. It was reasonable to postulate that apoptosis might be triggered by TGF-β rather than the LcrS5-30. To confirm this assumption, a pharmacological inhibitor, SB431542, would be applied. The percentages of apoptotic cells in 10 ng mL^−1 and 1 ng mL^−1 TGF-β exposed preparations were 18.9±0.44% and 16.57±0.67%, respectively (FIG. 8B). Treatment with 12.5 μg mL^−1 or 25 μg mL^−1 of the LcrS5-30 induced dissimilar level of apoptosis of THP-1 cells that were 26.35±0.77% and 74.96±0.38%, respectively.

[1] = system: human peripheral blood T cells; conditions: 18 h culture, 5 μg mL^−1; cited from earlier work

## NC(=O)c1ccc(-c2nc(-c3ccc4c(c3)OCO4)c(-c3ccccn3)[nH]2)cc1 [SB-431542]
THP-1 cells; 1 μg mL^−1 inhibitor, 24 h
  blocking of TGF-β1-induced apoptosis: significantly blocked
  blocking of apoptosis: significantly blocked

## TGF-β: anti-inflammatory cytokine applied to THP-1 cells at 1 and 10 ng mL^−1
THP-1 cells; 1 ng mL^−1, 24 h
  percentage of apoptotic cells: 16.57±0.67%
THP-1 cells; 10 ng mL^−1, 24 h
  percentage of apoptotic cells: 18.9±0.44%
THP-1 cells; One ng mL^−1, 1 μg mL^−1 SB431542, 24 h
  induced apoptosis in the presence of TGF-β inhibitor SB431542: SB431542 sensitive

## infliximab
[1]
  killing activity (as much as): ≤ 50.6%
